The results in this text go back to patent publication US20230183703A1, “COMPOSITIONS AND METHODS FOR TREATING AND DETECTING CORONAVIRUS INFECTION” (HOWARD UNIVERSITY, priority 2020, published 2023).

The series concerns SARS-CoV-2. The series is classed as cell-based. To be noted: result in words.

For the substance “A25L: SEQ ID NO: 2: 10-nucleotide linker GGAGAATGAC sandwiched between two copies of a 25-mer poly(dA) sequence (DNA AAAAAAAAAAAAAAAAAAAAAAAAAGGAGAATGACAAAAAAAAAAAAAAAAAAAAAAAAA; further chemistry not given here)”, the “inhibition of SARS-CoV-2 proliferation in Vero-76 cells” value is recorded as “markedly inhibited”.

Take “A25: 5′-GGAGAATGACA(25)-3′, SEQ ID NO: 1: 10-nucleotide linker attached to 5′-end of a 25-mer poly(dA) sequence (DNA GGAGAATGACAAAAAAAAAAAAAAAAAAAAAAAAA; further chemistry not given here)”: the “inhibition of SARS-CoV-2 proliferation in Vero-76 cells” value is recorded as “markedly inhibited”.
